# Measurements from patent US20190256929A1, “PHARMACODYNAMIC BIOMARKERS FOR PERSONALIZED CANCER CARE USING EPIGENETIC MODIFYING AGENTS” (ORYZON GENOMICS, S.A., priority 2016, published 2019).
# Tested on: small cell lung cancer cell lines
# Experiment: qRT-PCR time- and dosage-dependent expression change of candidate PD markers ASCL1, GRP, NOTCH1 in SCLC cell lines
# Assay type: cell-based, human
# Method: Seven small cell lung cancer cell lines were treated with 0.1 nM, 1 nM and 10 nM (trans)-N1-((1R,2S)-2-phenylcyclopropyl)cyclohexane-1,4-diamine or vehicle 24 hr, 96 hr and 7 days. Lysates were prepared by lysis in RNA lysis buffer containing 1% β-mercaptoethanol. RNA extraction was performed using a Maxwell 16 instrument and a Maxwell 16 LEV simply RNA cells Kit (Promega), according to the manufacturer's instructions. The mRNA expression levels of each cell line after treatment were then measured using qRT-PCR. The RT-qPCR reaction was conducted using a one-step kit (ABI), with a duplexed house-keeping control (Assay ID Hs02800695_m1) using the assays in the table below. The log 2 fold changes for each gene were calculated by comparing with the vehicle controlled samples at 24 hr sampling point.
# Table 6 contains the dose-dependent effect on expression changes for candidate PD markers ASCL1 (Assay ID Hs04187546_g1), GRP (Assay ID Hs01107047_m1) and NOTCH1 (Assay ID Hs01062014_m1).
# [1] = SHP-77, 0.1 nM, 24 hrs, vs vehicle at 24 hr
# [2] = SHP-77, 0.1 nM, 96 hrs, vs vehicle at 24 hr
# [3] = SHP-77, 0.1 nM, 168 hrs, vs vehicle at 24 hr
# [4] = SHP-77, 1 nM, 24 hrs, vs vehicle at 24 hr
# [5] = SHP-77, 1 nM, 96 hrs, vs vehicle at 24 hr
# [6] = SHP-77, 1 nM, 168 hrs, vs vehicle at 24 hr
# [7] = SHP-77, 10 nM, 24 hrs, vs vehicle at 24 hr
# [8] = SHP-77, 10 nM, 96 hrs, vs vehicle at 24 hr
# [9] = SHP-77, 10 nM, 168 hrs, vs vehicle at 24 hr
smiles,measurement,setting,value
"N[C@H]1CC[C@H](N[C@@H]2C[C@H]2c2ccccc2)CC1 [RG6016, (trans)-N1-((1R,2S)-2-phenylcyclopropyl)cyclohexane-1,4-diamine]",Log2_FC ASCL1,"NCI-H510A, 1 nM, 168 hrs",−0.51
same,Log2_FC GRP,"NCI-H510A, 1 nM, 168 hrs",−2.34
same,Log2_FC NOTCH1,"NCI-H510A, 1 nM, 168 hrs",3.98
same,Log2_FC ASCL1,"NCI-H510A, 10 nM, 24 hrs",−0.28
same,Log2_FC GRP,"NCI-H510A, 10 nM, 24 hrs",−0.35
same,Log2_FC NOTCH1,"NCI-H510A, 10 nM, 24 hrs",1.60
same,Log2_FC ASCL1,"NCI-H510A, 10 nM, 96 hrs",−0.55
same,Log2_FC GRP,"NCI-H510A, 10 nM, 96 hrs",−2.02
same,Log2_FC NOTCH1,"NCI-H510A, 10 nM, 96 hrs",2.89
same,Log2_FC ASCL1,"NCI-H510A, 10 nM, 168 hrs",−0.64
same,Log2_FC GRP,"NCI-H510A, 10 nM, 168 hrs",−2.53
same,Log2_FC NOTCH1,"NCI-H510A, 10 nM, 168 hrs",4.16
same,Log2_FC NOTCH1,"NCI-H526, 0.1 nM, 24 hrs, vs vehicle at 24 hr",0.04
same,Log2_FC NOTCH1,"NCI-H526, 0.1 nM, 96 hrs, vs vehicle at 24 hr",0.51
same,Log2_FC NOTCH1,"NCI-H526, 0.1 nM, 168 hrs, vs vehicle at 24 hr",0.55
same,Log2_FC NOTCH1,"NCI-H526, 1 nM, 24 hrs, vs vehicle at 24 hr",0.27
same,Log2_FC NOTCH1,"NCI-H526, 1 nM, 96 hrs, vs vehicle at 24 hr",0.53
same,Log2_FC NOTCH1,"NCI-H526, 1 nM, 168 hrs, vs vehicle at 24 hr",0.96
same,Log2_FC NOTCH1,"NCI-H526, 10 nM, 24 hrs, vs vehicle at 24 hr",0.41
same,Log2_FC NOTCH1,"NCI-H526, 10 nM, 96 hrs, vs vehicle at 24 hr",0.70
same,Log2_FC NOTCH1,"NCI-H526, 10 nM, 168 hrs, vs vehicle at 24 hr",0.33
same,Log2_FC ASCL1,"NCI-H1417, 0.1 nM, 24 hrs",−0.19
same,Log2_FC GRP,"NCI-H1417, 0.1 nM, 24 hrs",0.24
same,Log2_FC NOTCH1,"NCI-H1417, 0.1 nM, 24 hrs",0.14
same,Log2_FC ASCL1,"NCI-H1417, 0.1 nM, 96 hrs",0.12
same,Log2_FC GRP,"NCI-H1417, 0.1 nM, 96 hrs",−0.25
same,Log2_FC NOTCH1,"NCI-H1417, 0.1 nM, 96 hrs",0.98
same,Log2_FC ASCL1,"NCI-H1417, 0.1 nM, 168 hrs",0.13
same,Log2_FC GRP,"NCI-H1417, 0.1 nM, 168 hrs",−0.51
same,Log2_FC NOTCH1,"NCI-H1417, 0.1 nM, 168 hrs",0.86
same,Log2_FC ASCL1,"NCI-H1417, 1 nM, 24 hrs",−0.20
same,Log2_FC GRP,"NCI-H1417, 1 nM, 24 hrs",−0.25
same,Log2_FC NOTCH1,"NCI-H1417, 1 nM, 24 hrs",1.40
same,Log2_FC ASCL1,"NCI-H1417, 1 nM, 96 hrs",−0.27
same,Log2_FC GRP,"NCI-H1417, 1 nM, 96 hrs",−1.06
same,Log2_FC NOTCH1,"NCI-H1417, 1 nM, 96 hrs",3.04
same,Log2_FC ASCL1,"NCI-H1417, 1 nM, 168 hrs",−0.19
same,Log2_FC GRP,"NCI-H1417, 1 nM, 168 hrs",−0.68
same,Log2_FC NOTCH1,"NCI-H1417, 1 nM, 168 hrs",2.55
same,Log2_FC ASCL1,"NCI-H1417, 10 nM, 24 hrs",−0.25
same,Log2_FC GRP,"NCI-H1417, 10 nM, 24 hrs",−0.35
same,Log2_FC NOTCH1,"NCI-H1417, 10 nM, 24 hrs",1.86
same,Log2_FC ASCL1,"NCI-H1417, 10 nM, 96 hrs",−0.54
same,Log2_FC GRP,"NCI-H1417, 10 nM, 96 hrs",−1.13
same,Log2_FC NOTCH1,"NCI-H1417, 10 nM, 96 hrs",3.14
same,Log2_FC ASCL1,"NCI-H1417, 10 nM, 168 hrs",−0.66
same,Log2_FC GRP,"NCI-H1417, 10 nM, 168 hrs",−1.14
same,Log2_FC NOTCH1,"NCI-H1417, 10 nM, 168 hrs",3.22
same,Log2_FC ASCL1,"NCI-H1876, 0.1 nM, 24 hrs",0.16
same,Log2_FC GRP,"NCI-H1876, 0.1 nM, 24 hrs",0.41
same,Log2_FC NOTCH1,"NCI-H1876, 0.1 nM, 24 hrs",0.82
same,Log2_FC ASCL1,"NCI-H1876, 0.1 nM, 96 hrs",−0.58
same,Log2_FC GRP,"NCI-H1876, 0.1 nM, 96 hrs",−1.58
same,Log2_FC NOTCH1,"NCI-H1876, 0.1 nM, 96 hrs",−0.76
same,Log2_FC ASCL1,"NCI-H1876, 0.1 nM, 168 hrs",0.35
same,Log2_FC NOTCH1,"NCI-H1876, 0.1 nM, 168 hrs",−0.59
same,Log2_FC ASCL1,"NCI-H1876, 1 nM, 24 hrs",0.04
same,Log2_FC GRP,"NCI-H1876, 1 nM, 24 hrs",0.70
same,Log2_FC NOTCH1,"NCI-H1876, 1 nM, 24 hrs",2.28
same,Log2_FC ASCL1,"NCI-H1876, 1 nM, 96 hrs",−0.54
same,Log2_FC GRP,"NCI-H1876, 1 nM, 96 hrs",−1.96
same,Log2_FC NOTCH1,"NCI-H1876, 1 nM, 96 hrs",1.08
same,Log2_FC ASCL1,"NCI-H1876, 1 nM, 168 hrs",0.32
same,Log2_FC GRP,"NCI-H1876, 1 nM, 168 hrs",−0.54
same,Log2_FC ASCL1,"NCI-H1876, 10 nM, 24 hrs",−0.02
same,Log2_FC GRP,"NCI-H1876, 10 nM, 24 hrs",0.38
same,Log2_FC NOTCH1,"NCI-H1876, 10 nM, 24 hrs",2.67
same,Log2_FC ASCL1,"NCI-H1876, 10 nM, 96 hrs",−0.82
same,Log2_FC NOTCH1,"NCI-H1876, 10 nM, 96 hrs",2.07
same,Log2_FC ASCL1,"NCI-H1876, 10 nM, 168 hrs",0.03
same,Log2_FC GRP,"NCI-H1876, 10 nM, 168 hrs",−1.38
same,Log2_FC NOTCH1,"NCI-H1876, 10 nM, 168 hrs",2.55
same,Log2_FC ASCL1,"NCI-H2171, 0.1 nM, 24 hrs",−0.14
same,Log2_FC GRP,"NCI-H2171, 0.1 nM, 24 hrs",0.01
same,Log2_FC NOTCH1,"NCI-H2171, 0.1 nM, 24 hrs",0.49
same,Log2_FC ASCL1,"NCI-H2171, 0.1 nM, 96 hrs",−0.29
same,Log2_FC GRP,"NCI-H2171, 0.1 nM, 96 hrs",−1.96
same,Log2_FC NOTCH1,"NCI-H2171, 0.1 nM, 96 hrs",0.95
same,Log2_FC ASCL1,"NCI-H2171, 0.1 nM, 168 hrs",−0.16
same,Log2_FC GRP,"NCI-H2171, 0.1 nM, 168 hrs",−1.11
same,Log2_FC NOTCH1,"NCI-H2171, 0.1 nM, 168 hrs",0.90
same,Log2_FC ASCL1,"NCI-H2171, 1 nM, 24 hrs",−0.06
same,Log2_FC NOTCH1,"NCI-H2171, 1 nM, 24 hrs",0.75
same,Log2_FC ASCL1,"NCI-H2171, 1 nM, 96 hrs",−0.43
same,Log2_FC GRP,"NCI-H2171, 1 nM, 96 hrs",−1.17
same,Log2_FC NOTCH1,"NCI-H2171, 1 nM, 96 hrs",1.17
same,Log2_FC ASCL1,"NCI-H2171, 1 nM, 168 hrs",−0.02
same,Log2_FC GRP,"NCI-H2171, 1 nM, 168 hrs",−1.56
same,Log2_FC NOTCH1,"NCI-H2171, 1 nM, 168 hrs",1.41
same,Log2_FC ASCL1,"NCI-H2171, 10 nM, 24 hrs",−0.16
same,Log2_FC GRP,"NCI-H2171, 10 nM, 24 hrs",−0.37
same,Log2_FC NOTCH1,"NCI-H2171, 10 nM, 24 hrs",0.82
same,Log2_FC ASCL1,"NCI-H2171, 10 nM, 96 hrs",−0.27
same,Log2_FC GRP,"NCI-H2171, 10 nM, 96 hrs",−0.46
same,Log2_FC NOTCH1,"NCI-H2171, 10 nM, 96 hrs",1.22
same,Log2_FC ASCL1,"NCI-H2171, 10 nM, 168 hrs",−0.11
same,Log2_FC GRP,"NCI-H2171, 10 nM, 168 hrs",−0.87
same,Log2_FC NOTCH1,"NCI-H2171, 10 nM, 168 hrs",1.63
same,Log2_FC ASCL1,[1],−0.11
same,Log2_FC GRP,[1],0.17
same,Log2_FC ASCL1,[2],0.11
same,Log2_FC GRP,[2],0.74
same,Log2_FC ASCL1,[3],−0.36
same,Log2_FC GRP,[3],0.43
same,Log2_FC ASCL1,[4],0.52
same,Log2_FC GRP,[4],1.20
same,Log2_FC ASCL1,[5],0.38
same,Log2_FC GRP,[5],0.83
same,Log2_FC ASCL1,[6],−0.33
same,Log2_FC GRP,[6],0.16
same,Log2_FC ASCL1,[7],−0.07
same,Log2_FC GRP,[7],−0.10
same,Log2_FC ASCL1,[8],0.22
same,Log2_FC GRP,[8],0.56
same,Log2_FC ASCL1,[9],−0.50
same,Log2_FC GRP,[9],−0.06
